Data on eleven compounds can be found in patent US9357776B2, “Method for producing pest control agent” (priority 2011, dated 2016).

SMILES strings stand for the structures. Where only a bound is given, the exact number is not on record here.

One data set deals with Nilaparvata lugens. Put plainly: Test for control of Nilaparvata lugens, sensitive and resistant strains (rice soil drench). To be noted: three days after release. The data set is classed as in vivo. As for the experimental part: (§1) Rice plant seedlings grown in a pot were treated by soil drench with a liquid agent prepared to be 10% acetone-water, and to contain a predetermined concentration of a compound of the present invention. Three days after the treatment, 10 sensitive or resistant strain of second instar larvae of Nilaparvata lugens were released on each of the rice plant seedlings. After that, the rice plant seedlings were allowed to stand in a thermostatic chamber at 25° C. (16-hour light period and 8-hour dark period). […] The test was duplicated. Mortality rate (%)=[Number of dead insects/(Number of survived insects+Number of dead insects)]×100
Note that the pests tested were as follows: Insects bred for generations in a room for a long period (sensitive strain), (I) Insects collected in Kumamoto Prefecture in 2007, and bred for generations in a room (field-collected strain: resistant strain), or (II) Insects collected in Fukuoka Prefecture in 2005, and bred for generations in a room (field-collected strain).

The subject of data set [1] is Laodelphax striatellus. Put plainly: Test for control of Laodelphax striatellus, sensitive and resistant strains (rice soil drench). Format: in vivo. Conditions: three days after release. The procedure: as §1, with “Laodelphax striatellus” for “Nilaparvata lugens”, “that” for “that,”
Note that the pests tested were insects bred for generations in a room for a long period (sensitive strain), and insects collected in Kumamoto Prefecture in 2006, and bred for generations in a room (field-collected strain: resistant strain).

Data set [2] relates to crude enzyme extraction liquid of housefly (Musca domestica). Kind of data set: In vitro metabolism test using crude enzyme extraction liquid of housefly. The data set is classed as in vitro ADME. To be noted: 25° C., 40 hours, LC/MS. As for the experimental part:
As described in Pest Management Science (2003), 59(3), 347-352, and Journal of Pesticide Science (2004), 29(2), 110-116, imidacloprid is known to be inactivated by oxidative metabolism, which is thought to be one of the mechanisms for the acquisition of the resistance. To investigate effects on insects acquiring such resistance, the following experiment was carried out.
To adult housefly (Musca domestica) (0.645 g), 10 ml of a potassium phosphate buffer (pH 7.4, containing 1 mM EDTA) was added, and the adult housefly was sufficiently ground with Physcotron (Nichion Irika Kikai Seisakusho). After that, the ground material was centrifuged under conditions of 10,000 g and 15 minutes. The obtained supernatant was further centrifuged under conditions of 100,000 g and 60 minutes. Thus, precipitates were obtained. The precipitates were dissolved in 1 ml of a potassium phosphate buffer, and this solution was used as a crude enzyme solution. The enzyme extraction operations were all conducted on ice or under a condition of 4° C.
Reagents were mixed with each other at the following ratio in a tube having a capacity of 1.5 mL, and allowed to react with each other at 25° C. for 40 hours. After the reaction, 1 mL of acetone was added to the mixture, followed by stirring. Then, the formed precipitates were removed by centrifugation at 12000 rpm for 5 minutes. […]

Data set [3] relates to Haemaphysalis longicornis. Kind of data set: Test for control of Haemaphysalis longicornis (dry film in glass vial). Format: in vivo. Conditions: 24 h, read-out: Mortality rate. The procedure:
Into a glass vial having a capacity of 4 mL, 30 μL of an acetone solution containing 200 ppm or 10 ppm of a compound of the present invention was introduced. The vial was placed on a shaker, and air dried, while being rotated. Thus, a dry film of the compound was formed on the inner wall of the vial. After the vial was dried for 24 hours or longer, 10 larvae of Haemaphysalis longicornis were released in the vial, and then the vial was capped. The vial was allowed to stand in a thermostatic chamber under conditions of 25° C., a humidity of 85%, and total darkness. […] The test was duplicated. Mortality rate (%)=[Number of dead insects/(Number of survived insects+Number of dead insects)]×100

The next data set concerns Plutella xylostella. Put plainly: Test for control of diamondback moth (leaf disk). Format: in vivo. Conditions: in Brassica oleracea, foliar, 72 h, read-out: Mortality rate, Plutella xylostella. The procedure: (§2) A leaf disk having a diameter of 5.0 cm was cut out from cabbage grown in a pot. Then, a liquid agent prepared to be 50% acetone-water (to which 0.05% Tween20 was added) and to contain 500 ppm of a compound represented by formula (I) was spread over the leaf disk. After the leaf disk was air dried, second instar larvae were released on the leaf disk. After that, the leaf disk was allowed to stand in a thermostatic chamber at 25° C. (16-hour light period and 8-hour dark period). […] The test was duplicated. Mortality rate (%)=[Number of dead insects/(Number of survived insects+Number of dead insects)]×100

The next data set has as its system Aphis gossypii. Put plainly: Test for control of cotton aphid (leaf disk). Conditions: in Cucumis sativus, foliar, 72 h, read-out: Mortality rate, Aphis gossypii. The data set is classed as in vivo. The procedure: as §2, with “2.0” for “5.0”, “cucumber (Cucumis sativus L.)” for “cabbage”, “first” for “second”
Data set [4] deals with Laodelphax striatellus. Kind of data set: Test for control of Laodelphax striatellus (wheat seedling root treatment). Format: in vivo. To be noted: 96 h, read-out: Mortality rate, Laodelphax striatellus. As for the experimental part:
Roots of wheat seedlings 48 hours after seeding were each treated with 200 μL of a liquid agent prepared to be 10% acetone-water, and to contain 100 ppm of a compound represented by formula (I). The agent was absorbed through the roots for 72 hours, and then 10 second instar larvae of Laodelphax striatellus were released on each wheat seedling. After that, the wheat seedlings were allowed to stand in a thermostatic chamber at 25° C. (16-hour light period and 8-hour dark period). […] The test was duplicated.

In data set [5] the test system is Haemaphysalis longicornis. Kind of data set: Effect of controlling Haemaphysalis longicornis on body surface of mouse. Format: in vivo. Conditions: mouse (ICR, male), 20 μL of 1000-fold diluted drop preparation (48% by weight Compound 1 in ethanol), three days after release. The procedure:
Hair on the back of a mouse (ICR, male, 5-weeks old) in a region having a diameter of approximately 2 cm was shaved, and a 15-mL polystyrene conical tube cut to have a height of approximately 1.5 cm was bonded to this region with an instant adhesive.
Then, 20 μL of a 1000-fold diluted liquid of a pest control agent prepared according to the following formulation was added dropwise onto the body surface of the mouse within the bonded tube. After sufficient drying, […] larvae of Haemaphysalis longicornis were released into the tube, and the tube was capped.
Formulation [Drop Preparation]
The components were uniformly mixed with each other, and a drop preparation was obtained. blood-sucking inhibition rate (%)=100−[Number of […]/(Number of survived ticks+Number of dead ticks)]×100

Setting [6] is: 0.01 mg/seedling, field-collected strain (Kumamoto 2006, resistant).
Where [7] appears, read: 0.01 mg/seedling, sensitive strain.
Where [8] appears, read: 0.005 mg/seedling, all the strains.
Where [9] appears, read: 0.01 mg/seedling, strain (II) (Fukuoka 2005, field-collected).

With `O=[N+]([O-])NC1=NCCN1Cc1ccc(Cl)nc1` [imidacloprid, reference compound], the Mortality rate stood at 100% in the data set on Nilaparvata lugens (0.05 mg/seedling, sensitive strain); 40% in the data set with Nilaparvata lugens (0.05 mg/seedling, strain (I) (Kumamoto 2007, resistant strain)); 60% with Nilaparvata lugens (0.05 mg/seedling, strain (II) (Fukuoka 2005, field-collected)); 50% in the data set with Laodelphax striatellus [1] (setting [6]); 100% in the data set with Laodelphax striatellus [1] (setting [7]). For the same compound, the “total area percentage of metabolites” value in data set [2] was found to be 2.55. Besides, the mortality (usually the share of the test organisms that died) at 10 ppm in data set [3] was determined as 4%.

In the case of `O=C(N=c1ccccn1Cc1ccc(Cl)nc1)C(F)F` [Compound 8, N-[1-((6-Chloropyridin-3-yl)methyl)pyridin-2(1H)-ylidene]-2,2-difluoroacetamide], the mortality at 500 ppm with Plutella xylostella and in the data set on Aphis gossypii was 100% throughout. In addition, in the data set with Laodelphax striatellus [4], the mortality at 100 ppm turned out to be 100%.

For `O=C(N=c1ccccn1Cc1ccc(Cl)nc1)C(F)(F)Cl` [Compound 4, 2-chloro-N-[1-((6-Chloropyridin-3-yl)methyl)pyridin-2(1H)-ylidene]-2,2-difluoroacetamide], the mortality at 500 ppm with Plutella xylostella and in the data set on Aphis gossypii was 100% each time. The mortality at 100 ppm with Laodelphax striatellus [4] worked out at 100%.

Take `O=C(N=c1ccccn1Cc1ccc(Cl)nc1)C(F)(F)F` [Compound 1, N-[1-((6-Chloropyridin-3-yl)methyl)pyridin-2(1H)-ylidene]-2,2,2-trifluoroacetamide]: the mortality at 500 ppm in the data set with Plutella xylostella and with Aphis gossypii was 100% throughout. For the same compound, in the data set with Laodelphax striatellus [4], the mortality at 100 ppm amounted to 100%. Moreover, the Mortality rate in the data set with Nilaparvata lugens (setting [8]) is listed as ≥ 90%; in the data set with Nilaparvata lugens (0.05 mg/seedling, all the strains) it was 100%; with Laodelphax striatellus [1] (setting [8]) it was ≥ 90%. For the same compound, the “total area percentage of metabolites” value in data set [2] was determined as 0.08. Also, in data set [3], the mortality at 10 ppm was ≥ 80%. For the same compound, in data set [3], the mortality at 200 ppm is ≥ 80%. In data set [5], the blood-sucking inhibition rate worked out at 91%.

`N#Cc1nn(-c2c(Cl)cc(C(F)(F)F)cc2Cl)c(N)c1[S+]([O-])C(F)(F)F` (stereo not shown) [fipronil]: the Mortality rate in the data set with Laodelphax striatellus [1] (setting [6]) came out at 70%; in the data set with Laodelphax striatellus [1] (setting [7]), 100%.

For the compound `O=C(N=c1ccccn1Cc1ccc(Br)nc1)C(F)(F)F` [Compound 3, N-[1-((6-Bromopyridin-3-yl)methyl)pyridin-2(1H)-ylidene]-2,2,2-trifluoroacetamide], the mortality at 500 ppm with Plutella xylostella and in the data set with Aphis gossypii was 100% each time. In the data set on Laodelphax striatellus [4], the mortality at 100 ppm worked out at 100%. In addition, the Mortality rate with Laodelphax striatellus [1] (setting [6]) amounted to 90%; with Laodelphax striatellus [1] (setting [7]), 100%.

With `O=C(N=c1ccccn1Cc1ccc(Cl)nc1)C(Cl)(Cl)Cl` [Compound 5, 2,2,2-Trichloro-N-[1-((6-chloropyridin-3-yl)methyl)pyridin-2(1H)-ylidene]acetamide], the mortality at 500 ppm is 100% in the data set with Plutella xylostella and 95% with Aphis gossypii. For the same compound, the mortality at 100 ppm with Laodelphax striatellus [4] stood at 75%.

For the compound `O=C(N=c1ccccn1Cc1ccc(Cl)nc1)C(F)(F)C(F)(F)F` [Compound 7, N-[1-((6-Chloropyridin-3-yl)methyl)pyridin-2(1H)-ylidene]-2,2,3,3,3-pentafluoropropanamide], the mortality at 500 ppm in the data set with Plutella xylostella and with Aphis gossypii was 100% each time. Also, in the data set with Laodelphax striatellus [4], the mortality at 100 ppm was 100%.

Consider `O=C(N=c1ccccn1Cc1cnc(Cl)nc1)C(F)(F)F` [Compound 6, N-[1-((2-Chloropyrimidin-5-yl)methyl)pyridin-2(1H)-ylidene]-2,2,2-trifluoroacetamide], for which the mortality at 500 ppm with Plutella xylostella and with Aphis gossypii was 100% in each case. For the same compound, the mortality at 100 ppm with Laodelphax striatellus [4] worked out at 100%.

In the case of `O=C(N=c1ccccn1Cc1cnc(Cl)c(F)c1)C(F)(F)F` [Compound 2, N-[1-((6-Chloro-5-fluoropyridin-3-yl)methyl)pyridin-2(1H)-ylidene]-2,2,2-trifluoroacetamide], the mortality at 500 ppm in the data set with Plutella xylostella and in the data set on Aphis gossypii was 100% in each case. In addition, in the data set on Laodelphax striatellus [4], the mortality at 100 ppm is 100%. For the same compound, the Mortality rate in the data set on Nilaparvata lugens (setting [7]) turned out to be 72%; in the data set with Nilaparvata lugens (setting [9]), 70%.

Regarding `O=C(N=c1ccccn1Cc1ccc(F)nc1)C(F)(F)F` [Compound 19, N-[1-((6-fluoropyridin-3-yl)methyl)pyridin-2(1H)-ylidene]-2,2,2-trifluoroacetamide], the mortality at 500 ppm in the data set on Plutella xylostella and in the data set on Aphis gossypii was 100% throughout. The mortality at 100 ppm in the data set on Laodelphax striatellus [4] came to 100%. Moreover, the Mortality rate is listed as 100% with Nilaparvata lugens (setting [7]) and 93% in the data set with Nilaparvata lugens (setting [9]).
